Source: patent publication US10478445B2, “Boronic acid derivatives of resveratrol for activating deacetylase enzymes” (Georgetown University, priority 2013, dated 2019)

Legend:
[1] = target: T1, purified human SIRT1 enzyme (Homo sapiens, UniProt Q96EB6); settings: reported; cited from earlier work
T1 construct: purchased Enzo Life Sciences
T1 sequence (Q96EB6 1-747): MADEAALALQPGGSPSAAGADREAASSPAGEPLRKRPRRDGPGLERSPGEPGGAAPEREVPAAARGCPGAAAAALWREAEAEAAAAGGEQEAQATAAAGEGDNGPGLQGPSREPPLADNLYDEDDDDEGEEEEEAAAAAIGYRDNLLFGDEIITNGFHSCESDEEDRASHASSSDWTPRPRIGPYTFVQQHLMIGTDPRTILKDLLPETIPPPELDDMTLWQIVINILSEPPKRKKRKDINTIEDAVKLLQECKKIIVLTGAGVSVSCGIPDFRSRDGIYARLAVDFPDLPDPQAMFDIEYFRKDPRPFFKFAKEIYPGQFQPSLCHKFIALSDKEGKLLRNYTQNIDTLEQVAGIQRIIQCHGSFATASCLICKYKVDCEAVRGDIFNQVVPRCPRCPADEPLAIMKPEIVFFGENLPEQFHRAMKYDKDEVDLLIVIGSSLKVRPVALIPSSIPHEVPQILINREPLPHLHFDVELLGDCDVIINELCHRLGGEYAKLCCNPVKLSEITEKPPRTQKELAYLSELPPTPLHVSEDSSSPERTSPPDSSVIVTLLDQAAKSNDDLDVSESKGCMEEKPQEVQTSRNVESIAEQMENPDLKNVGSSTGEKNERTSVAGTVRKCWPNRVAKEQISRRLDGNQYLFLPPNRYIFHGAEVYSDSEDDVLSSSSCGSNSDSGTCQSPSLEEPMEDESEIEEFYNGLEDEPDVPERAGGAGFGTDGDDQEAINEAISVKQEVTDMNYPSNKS

acetyl-p53 = settings: reported; cited from earlier work
[2] = target: T1, purified human SIRT1 enzyme; experiment: In vitro SIRT assay (Fluor-de-Lys-SIRT1 deacetylase assay); assay type: biochemical; settings: 50 μM of suramin added to reaction
Procedure: The Fluor-de-Lys-SIRT1 and SIRT2 deacetylase assay were performed as manufacturer's instruction (Enzo Life Sciences, Farmingdale, N.Y.). For competition assay, 50 μM of suramin was added to reaction.

mtp53 = experiment: Western blot analysis of acetyl-mtp53 (K382) and mtp53 level; assay type: cell-based; settings: HS578T; 10 μM suramin 1 hr, then 1 μM YK-3-237 23 hr
Procedure: Preparation of cell lysates and western blot analyses were performed. Antibodies were obtained from the following sources: Ac-p53 (K382; #2525), Ac-α-tubulin (K40; #3971), phospho-ACC (S78; #3661), and ACC (#3676) from Cell Signaling (Danvers, Mass.); PARP (#556494) from BD Pharmingen (San Jose, Calif.); p53 (V1003) from Biomeda (Foster City, Calif.); ERα (sc-543) and SIRT1 (sc-15404) from Santa Cruz (Santa Cruz, Calif.); α-tubulin, β-Actin (A1978), and horseradish peroxidase-conjugated secondary antibodies from Sigma (St. Louis, Mo.). Chemiluminescence reagent was obtained from Santa Cruz or Thermo Scientific (Rockford, Ill.).

Row | SMILES | in vitro SIRT1 activity toward nascent p53 peptide [1] | acetyl-p53 in cells (acetyl-p53) | effect on YK-3-237-mediated SIRT1 activation (competition assay) [2] | effect of pre-treatment on YK-3-237-mediated deacetylation and reduction of mtp53 (mtp53)
1 | O=C(Nc1ccccc1-c1cn2c(CN3CCNCC3)csc2n1)c1cnc2ccccc2n1 [SRT1720] | could not activate in vitro SIRT1 activity toward nascent p53 peptide | reduce acetyl-p53 in cells | – | –
2 | Cc1ccc(C(=O)Nc2ccc(S(=O)(=O)O)c3cc(S(=O)(=O)O)cc(S(=O)(=O)O)c23)cc1NC(=O)c1cccc(NC(=O)Nc2cccc(C(=O)Nc3cc(C(=O)Nc4ccc(S(=O)(=O)O)c5cc(S(=O)(=O)O)cc(S(=O)(=O)O)c45)ccc3C)c2)c1 [suramin] | – | – | antagonized YK-3-237-mediated SIRT1 activation | reversed both deacetylation of mtp53 (K382) and reduction of mtp53 protein
